According to patent US10076505B2, “Inhalation formulations of Treprostinil” (priority 2003, dated 2018):

Experiments:
[1] = test system: sheep; experiment: Aerosolized UT-15 at high doses on baseline hemodynamics (Example III); type: in vivo
Source text: The efficacy of benzindene prostaglandins, such as UT-15, for treating pulmonary hypertension can be assessed by determining the hemodynamics associated with pulmonary hypertension. In particular, measurements of pulmonary arterial pressure (PPA), left atrial pressure (PLA), central venous pressure (PCV), systemic arterial pressure (PSYS), heart rate (HR), and cardiac output (CO) are useful in determining the effects of benzindene prostaglandins delivered by inhalation or parenterally.
Although pulmonary arterial pressure can be directly measured and is often used to quantify pulmonary arterial hypertension, PPA can be affected by 3 other variables: CO, PLA and PVR, as indicated by Equation 1: PPA=(CO*PVR)+PLA (1)
On the other hand, PVR can not be directly measured and must be calculated by the following Equation 2: PVR=(PPA−PLA)/CO (2)
Heart rate was determined by measuring the time (seconds) required for 25 heart beats to occur (t25) as indicated by the pulsations on the blood flow meter; the beats per minute (BPM) were calculated by the following equation: BPM=(25 beats/t25)*60 seconds
All pressure may be monitored by commercially available transducers, such as Model 1290A HEWLETT PACKARD™ transducer (Andover, Mass.), which is attached to VALIDYNE CD19A Carrier Dmod. Amplifiers (Northridge, Calif.). Cardiac output may be measured by a Transonic Systems T101 Ultrasonic Bloodflow Meter (Ithaca, N.Y.). The pressure and blood flow signals may be recorded on ASTROMED MT-9500 Stripchart Recorder (West Warwick, R.I.) and digitally recorded with a personal computer using Easy Data Acquisition Software (Nashville, Tenn.).
Six yearling sheep (3 males, 3 females; 21-37 kg) were fasted 18-24 hours and initially anesthetized with a short acting barbiturate (thiopental) to allow intubation of the sheep. Halothane gas anesthesia (1.5-2.5%) was then used for the surgical procedures. Via a left thoracotomy, a Transonic blood flow probe was placed around the main pulmonary artery, silastic catheters placed in the main pulmonary artery and left atrium. After approximately 7 days the sheep were reanesthetized and the left carotid artery cannulated, a Cordis Introducer Sheath inserted in the left jugular vein, and a tracheotomy made. The sheep were allowed to recover for another 3-5 days prior to experimentation. These sheep were used to allow measurement of pulmonary arterial pressure (PPA), left atrial pressure (PLA), central venous pressure (PCV), systemic arterial pressure (PSYS), heart rate (HR), and cardiac output (CO) after baseline measurements were made for a minimum of 30 minutes.
Baseline measurements consisted of 30 minutes of monitoring during vehicle/saline aerosolization (0.28 ml/min). […]

[2] = test system: Buerger's disease; experiment: Case report: subcutaneous Treprostinil in severe Buerger's disease (Example IX); type: in vivo, human
Protocol: At this point, subcutaneous Treprostinil therapy was administered to the patient. Treprostinil was delivered chronically by continuous subcutaneous infusion using a pager-sized ambulatory infusion pump (Medtronic Minimed 407C, Minneapolis, Minn.)). […] The patient is now on a maintenance dose of Treprostinil 12 ng/kg/min from 9 PM-9 AM every seventh day, with no drug for the next 7 days.

[3] = 3800-5700 ng per kg per min, 90 minutes

With CCCCC[C@H](O)CC[C@@H]1[C@H]2Cc3cccc(OCC(=O)O)c3C[C@H]2C[C@H]1O [UT-15, 9-deoxy-2′,9-alpha-methano-3-oxa-4,5,6-trinor-3,7-(1′,3′-interphenylene)-13,14-dihydro-prostaglandin F1] the “PPA decrease relative to baseline” value [1, 3] was “approximately 18%”, the “PSYS decrease relative to baseline” value [1, 3] was 7.5% and the “PVR decrease relative to baseline” value [1, 3] was “approximately 19%”. For the same compound, the “non-lung effects (heart rate, cardiac output)” value ([1]; high doses) was “without significant non-lung effects”, the “dose limiting side effects” value ([2]; in vivo) was “diarrhea and jaw pain” and the Doppler studies ([2]; one patient) was “improvement in pulse volume recording wave form”. For the same compound, the “return of ischemic symptoms after attempts to discontinue” value ([2]; one patient) was at most 1 week, the maximum tolerated dose ([2]; one patient, continuous subcutaneous infusion) was 12.5 ng/kg/min and the “ulcer on right middle finger” value ([2]; one patient, maintenance 12 ng/kg/min) was “complete healing”. For the same compound, the “patient-reported comfort and activities of daily living” value ([2]; one patient, sc infusion 12.5 ng/kg/min) was “improved comfort and increased ability to participate in activities of daily living”.
